Measurements from patent publication US5030733A, “Hydroxy-, alkoxy- and benzyloxy-substituted phospholipids” (Hoechst-Roussel Pharmaceticals Incorporated, priority 1989, dated 1991).

Test system: phenyl-para-quinone induced writhing
Assay: phenyl-para-quinone (PQW) writhing assay for analgesia
Format: in vivo
Conditions: Mus musculus, sc; 50% inhibition of writhing, s.c., mice; read-out: ED50 (subcutaneous dose at which 50% of the phenyl-para-quinone induced writhing is inhibited)
From the text: The compounds of the present invention are also useful as analgesic agents due to their ability to alleviate pain in mammals. […] Exptl. Biol. Med., 95, 729 (1957)]. Presented in Table 2 is the analgesic effect of some of the compounds of the invention expressed as either the subcutaneous dose at which 50% of the phenyl-para-quinone induced writhing is inhibited in the animals, i.e., the ED50 value, or as the % decrease in writhing at a give dose.

## CCC(=O)O[C@](Cc1ccccc1)(c1ccccc1)[C@H](C)CN(C)C [Propoxyphene]
  ED50: 3.9 mg/kg
